Reference: ChEMBL document CHEMBL5233210, “Pyrazolone structural motif in medicinal chemistry: Retrospect and prospect” (Eur J Med Chem, 2020)
In brackets after ≈: the same amount, converted by molar mass.

Tests used:
Ehrlich [1] = experiment: Cytotoxicity against mouse Ehrlich ascites cells assessed as dead cells at 100 ug/ml; format: functional; conditions: dose 100 µg/ml
Ehrlich [2] = experiment: Cytotoxicity against mouse Ehrlich ascites cells assessed as dead cells at 500 ug/ml; format: functional; conditions: dose 500 µg/ml
Ehrlich [3] = experiment: Cytotoxicity against mouse Ehrlich ascites cells assessed as dead cells at 25 ug/ml; format: functional; conditions: dose 25 µg/ml
MCF7 = experiment: Cytotoxicity against human MCF7 cells; format: functional, cell-based
HepG2 = experiment: Cytotoxicity against human HepG2 cells; format: functional, cell-based
PC-3 = experiment: Cytotoxicity against human PC-3 cells; format: functional, cell-based
[4] = biological target: T1, Prostaglandin G/H synthase 1 (Ovis aries, UniProt P05979); experiment: Inhibition of ovine COX-1
T1 sequence (P05979 whole entry): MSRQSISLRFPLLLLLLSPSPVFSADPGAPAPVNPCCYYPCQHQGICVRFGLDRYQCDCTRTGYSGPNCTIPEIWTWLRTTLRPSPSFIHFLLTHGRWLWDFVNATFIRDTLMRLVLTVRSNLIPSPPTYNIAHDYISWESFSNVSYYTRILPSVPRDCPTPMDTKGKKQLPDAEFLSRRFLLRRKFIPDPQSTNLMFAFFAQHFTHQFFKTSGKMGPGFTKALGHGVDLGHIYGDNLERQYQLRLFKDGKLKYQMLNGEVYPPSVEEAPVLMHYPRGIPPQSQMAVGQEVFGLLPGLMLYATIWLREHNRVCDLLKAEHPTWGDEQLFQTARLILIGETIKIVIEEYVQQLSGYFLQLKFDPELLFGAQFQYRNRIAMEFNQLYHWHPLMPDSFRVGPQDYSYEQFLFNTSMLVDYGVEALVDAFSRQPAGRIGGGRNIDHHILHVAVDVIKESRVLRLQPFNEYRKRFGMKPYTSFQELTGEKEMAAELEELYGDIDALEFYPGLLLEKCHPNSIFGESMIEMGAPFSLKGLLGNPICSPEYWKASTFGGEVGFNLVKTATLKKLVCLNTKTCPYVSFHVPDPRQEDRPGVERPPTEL

[5] = biological target: T2, Prostaglandin G/H synthase 2 (Ovis aries, UniProt P79208); experiment: Inhibition of ovine COX-2
T2 sequence (P79208 whole entry): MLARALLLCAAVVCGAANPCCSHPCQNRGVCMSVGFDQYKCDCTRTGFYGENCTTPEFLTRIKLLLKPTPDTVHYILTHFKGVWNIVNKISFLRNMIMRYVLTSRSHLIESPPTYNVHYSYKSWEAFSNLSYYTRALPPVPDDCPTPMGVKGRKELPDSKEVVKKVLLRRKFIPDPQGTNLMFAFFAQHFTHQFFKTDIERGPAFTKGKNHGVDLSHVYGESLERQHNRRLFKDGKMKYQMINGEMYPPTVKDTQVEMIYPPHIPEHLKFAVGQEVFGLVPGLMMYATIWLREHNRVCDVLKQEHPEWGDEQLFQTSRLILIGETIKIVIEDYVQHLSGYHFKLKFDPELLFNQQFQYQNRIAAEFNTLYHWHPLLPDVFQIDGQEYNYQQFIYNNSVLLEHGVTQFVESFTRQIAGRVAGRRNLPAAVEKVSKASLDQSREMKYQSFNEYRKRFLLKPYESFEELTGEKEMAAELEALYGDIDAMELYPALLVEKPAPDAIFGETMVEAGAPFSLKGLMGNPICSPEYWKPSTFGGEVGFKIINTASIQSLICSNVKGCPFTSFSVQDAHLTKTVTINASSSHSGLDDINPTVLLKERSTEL

Ovis aries = species on record: Ovis aries; experiment: Selectivity index, ratio of IC50 for ovine COX-1 to IC50 for ovine COX-2
Escherichia coli [6] = experiment: Antibacterial activity against Escherichia coli assessed as diameter of inhibition zone at 100 ppm; format: functional; conditions: read-out: DIZ
Bacillus subtilis = experiment: Antibacterial activity against Bacillus subtilis assessed as diameter of inhibition zone at 100 ppm; format: functional; conditions: read-out: DIZ
Pseudomonas aeruginosa [7] = experiment: Antibacterial activity against Pseudomonas aeruginosa assessed as diameter of inhibition zone at 100 ppm; format: functional; conditions: read-out: DIZ
Aspergillus niger = experiment: Antifungal activity against Aspergillus niger assessed as diameter of inhibition zone at 100 ppm; format: functional; conditions: read-out: DIZ
Streptococcus mutans = experiment: Antibacterial activity against Streptococcus mutans assessed as diameter of inhibition zone at 100 ppm; format: functional; conditions: read-out: DIZ
Micrococcus luteus = experiment: Antibacterial activity against Micrococcus luteus assessed as diameter of inhibition zone at 100 ppm; format: functional; conditions: read-out: DIZ
Salmonella typhi = experiment: Antibacterial activity against Salmonella typhi assessed as diameter of inhibition zone at 100 ppm; format: functional, Salmonella enterica subsp. enterica serovar Typhi; conditions: Salmonella enterica, read-out: DIZ
Salmonella paratyphi = experiment: Antibacterial activity against Salmonella paratyphi assessed as diameter of inhibition zone at 100 ppm; format: functional, Salmonella enterica subsp. enterica serovar Paratyphi A; conditions: Salmonella enterica, read-out: DIZ
Candida albicans [8] = experiment: Antifungal activity against Candida albicans assessed as diameter of inhibition zone at 100 ppm; format: functional; conditions: read-out: DIZ
Trichoderma viride = experiment: Antifungal activity against Trichoderma viride assessed as diameter of inhibition zone at 100 ppm; format: functional; conditions: read-out: DIZ
Rattus norvegicus [9] = experiment: Antiinflammatory activity against rat assessed as inhibition of carrageenan-induced paw edema relative to control; format: functional; parameters: concentration or dose not given beside the values
[10] = Antioxidant activity assessed as DPPH radical scavenging activity; format: functional
Mus musculus [11] = species on record: Mus musculus; experiment: Antidepressant activity in Swiss albino mouse assessed as change in immobility by forced swim test; format: functional
Mus musculus [12] = species on record: Mus musculus; experiment: Antidepressant activity in Swiss albino mouse assessed as decrease in immobility time by forced swim test (reference value: 203.3 sec); format: functional
Mus musculus [13] = species on record: Mus musculus; experiment: Antidepressant activity in Swiss albino mouse assessed as decrease in immobility time by tail suspension test (reference value: 185.8 sec); format: functional
Mus musculus [14] = species on record: Mus musculus; experiment: Antidepressant activity in Swiss albino mouse assessed as change in immobility by tail suspension test; format: functional
[15] = Antioxidant activity assessed as ABTS radical scavenging activity; format: functional
Streptococcus pyogenes = experiment: Antibacterial activity against Streptococcus pyogenes; format: functional
Pseudomonas aeruginosa [16] = experiment: Antibacterial activity against Pseudomonas aeruginosa; format: functional
Escherichia coli [17] = experiment: Antibacterial activity against Escherichia coli; format: functional
Aspergillus fumigatus = experiment: Antifungal activity against Aspergillus fumigatus; format: functional
Candida albicans [18] = experiment: Antifungal activity against Candida albicans; format: functional
Rattus norvegicus [19] = experiment: Antiinflammatory activity against rat assessed as inhibition of carrageenan-induced paw edema; format: functional

CCOC(=O)c1c(N/N=C2/C(=O)NN=C2N)sc2c1CCCC2
Activity (Ehrlich [1]): 98.1% | Activity (Ehrlich [2]): 79% | Activity (Ehrlich [3]): 60%

O=c1[nH]cc(F)c(=O)[nH]1 [FLUOROURACIL]
IC50 (MCF7): 5.5 µg/mL | Activity (Ehrlich [1]): 97.3% | Activity (Ehrlich [2]): 68% | Activity (Ehrlich [3]): 38.6% | IC50 (HepG2): 7.9 µg/mL (≈ 60.7 µM) | IC50 (PC-3): 8.3 µg/mL (≈ 63.8 µM)

NS(=O)(=O)c1ccc(N2N=C/C(=N/Nc3ccccc3C(=O)O)C2=O)cc1
IC50 [4]: 4.08 µM | IC50 [5]: 770 nM | Ratio IC50 (Ovis aries): 5.29

Cc1ccc(/N=N/c2c(N)n[nH]c2N)cc1
zone of inhibition at 100 µg/mL (Escherichia coli [6]): 23.1 mm | zone of inhibition at 100 µg/mL (Bacillus subtilis): 25.3 mm | zone of inhibition at 100 µg/mL (Pseudomonas aeruginosa [7]): 19.3 mm | zone of inhibition at 100 µg/mL (Aspergillus niger): 25.5 mm

Cc1c(-n2cc(C#N)c(=O)n(-c3ccccc3)c2=N)c(=O)n(-c2ccccc2)n1C
IC50 (MCF7): 54.2 µM

CCOC(=O)C1CCN(/C(Nc2ccccc2)=C2\C(=O)N(c3ccccc3)N=C2C)CC1
zone of inhibition at 100 µg/mL (Escherichia coli [6]): 40 mm | zone of inhibition at 100 µg/mL (Bacillus subtilis): 36 mm

Cc1[nH]n(-c2ccccc2)c(=O)c1C(c1ccc([N+](=O)[O-])cc1[N+](=O)[O-])c1c(O)ccc2ccccc12 (configuration not stated)
zone of inhibition at 100 µg/mL (Bacillus subtilis): 22.5 mm | zone of inhibition at 100 µg/mL (Streptococcus mutans): 14.5 mm | zone of inhibition at 100 µg/mL (Micrococcus luteus): 21.5 mm | zone of inhibition at 100 µg/mL (Pseudomonas aeruginosa [7]): 13.5 mm | zone of inhibition at 100 µg/mL (Salmonella typhi): 20 mm | zone of inhibition at 100 µg/mL (Salmonella paratyphi): 20 mm | zone of inhibition at 100 µg/mL (Candida albicans [8]): 28.5 mm | zone of inhibition at 100 µg/mL (Trichoderma viride): 21.5 mm

Cc1c(-n2cc(C#N)c(=O)n(-c3ccccc3)/c2=N\c2ccccc2)c(=O)n(-c2ccccc2)n1C
IC50 (MCF7): 45 µM

CCCCNc1nc2ccccc2n1C1=NN=C(O)C1
Activity (Rattus norvegicus [9]): 61% | Ratio IC50 (Ovis aries): 4.84

C/C(=N\c1c(C)n(C)n(-c2ccccc2)c1=O)c1ccc(O)cc1O
IC50 [10]: 19.1 µM

CC1=NN(C(=O)c2ccc3ccccc3c2)C(=O)C1/N=N/c1ccc(Cl)cc1Cl (configuration not stated)
Activity (Mus musculus [11]): -51.9% | Time (Mus musculus [12]): 97.7 s | Time (Mus musculus [13]): 114.3 s | Activity (Mus musculus [14]): -38.4%

CC1=NN(c2nc(-c3ccccc3)cs2)C(=O)C1
Activity [15]: 85.7%

CC(C)CCC[C@@H](C)[C@H]1CC[C@H]2[C@@H]3C/C(=C4\C(=O)NN=C4N)C4CCCC[C@]4(C)[C@H]3CC[C@]12C (some centres not stated)
MIC (Streptococcus pyogenes): 50 µg/mL (≈ 107 µM) | MIC (Pseudomonas aeruginosa [16]): 50 µg/mL (≈ 107 µM) | MIC (Escherichia coli [17]): 50 µg/mL (≈ 107 µM) | MIC (Aspergillus fumigatus): 25 µg/mL (≈ 53.4 µM) | MIC (Candida albicans [18]): 25 µg/mL (≈ 53.4 µM)

NS(=O)(=O)c1ccc(N2N=C/C(=N/Nc3ccc(C(=O)O)cc3)C2=O)cc1
Activity (Rattus norvegicus [9]): 72.72% | IC50 [4]: 3.81 µM | IC50 [5]: 720 nM | Ratio IC50 (Ovis aries): 5.29 | ED50 (Rattus norvegicus [19]): 44 µmol/kg

CC1=NNC(=O)/C1=N/Nc1sc2c(c1C#N)CCCC2
Activity (Ehrlich [1]): 84% | Activity (Ehrlich [2]): 53.3% | Activity (Ehrlich [3]): 29.8%

O=C1CC(Nc2ccccc2NC(=S)NC2CCCCC2)=NN1
Activity (Rattus norvegicus [9]): 56% | Ratio IC50 (Ovis aries): 4.73

N#Cc1c(N/N=C2/C(=O)NN=C2N)sc2c1CCCC2
Activity (Ehrlich [1]): 100% | Activity (Ehrlich [2]): 98.6% | Activity (Ehrlich [3]): 94%

Cc1c(-n2cc(C#N)c(=O)n(-c3ccc(Br)cc3)c2=S)c(=O)n(-c2ccccc2)n1C
IC50 (MCF7): 43.4 µM

Cc1c(/N=C/c2ccccc2)c(=O)n(-c2ccccc2)n1C
IC50 [10]: 31.3 µM

O=C1O[C@H]([C@@H](O)CO)C(O)=C1O
Activity [15]: 88.2%
